# Measurements from ChEMBL document CHEMBL1201862, “PubChem BioAssay data set” (2004).
#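 Tested at 5 concentrations; 48 h exposure; 96-well plates; endpoints linearly interpolated, else capped at highest concentration. GI50 marks 50% less growth.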 Activity calls are given as the source filed them. Cut-off read from the data, not from the text of the source: active = GI50 up to about 1.1 µM and inactive = higher.
# Assays:
# Assay in all cases: growth of human tumour cells (NCI), 48 h
# [1] = system: UO-31
# [2] = system: COLO 205
# [3] = system: OVCAR-3
# [4] = system: LXFL 529
# [5] = system: NCI-H23
# [6] = system: ACHN
# [7] = system: Malme-3M
# [8] = system: SK-MEL-2
# [9] = system: SF-539
# [10] = system: KM-20L2
# [11] = system: MOLT-4
# [12] = system: HCT-15
# [13] = system: HCC 2998
# [14] = system: SF-268
# [15] = system: DMS-273
# [16] = system: SK-MEL-28
# [17] = system: SNB-78
# [18] = system: SK-MEL-5
# [19] = system: NCI-H460
# [20] = system: HT-29
# [21] = system: HL-60
# [22] = system: XF498
# [23] = system: SNB-75
# [24] = system: IGROV-1
# [25] = system: DMS-114
# [26] = system: U-251
# [27] = system: TK-10
# [28] = system: OVCAR-8
# [29] = system: 786-0
# [30] = system: SK-OV-3
# [31] = system: HOP-18
# [32] = system: A498
# [33] = system: DLD-1
# [34] = system: UACC-62
# [35] = system: UACC-257
# [36] = system: A549
# [37] = system: LOX IMVI
# [38] = system: RPMI-8226
# [39] = system: HOP-62
# [40] = system: CAKI-1
# [41] = system: HOP-92
# [42] = system: EKVX
# [43] = system: CCRF-CEM
# [44] = system: OVCAR-5
# [45] = system: OVCAR-4
# [46] = system: M14
# [47] = system: NCI-H226
# [48] = system: SW-620
# [49] = system: M19-MEL
# [50] = system: RXF 393
# [51] = system: HCT-116
# [52] = system: KM12
# [53] = system: K562
# [54] = system: SNB-19
# [55] = system: NCI-H522
# [56] = system: SF-295
# [57] = system: SN12C
structure (smiles),measurement,setting,value
COc1ccc(C2Oc3cc(OC)c(O)cc3[C@@H]2C)cc1 (stereo partly specified),GI50,[1],13.8 µM (inactive)
same,GI50,[2],> 100 µM (inactive)
same,GI50,[3],26.5 µM (inactive)
same,GI50,[4],17.5 µM (inactive)
same,GI50,[5],23.6 µM (inactive)
same,GI50,[6],16.5 µM (inactive)
same,GI50,[7],78 µM (inactive)
same,GI50,[8],43 µM (inactive)
same,GI50,[9],> 100 µM (inactive)
same,GI50,[10],49.5 µM (inactive)
same,GI50,[11],14.9 µM (inactive)
same,GI50,[12],16.5 µM
same,GI50,[13],57.5 µM (inactive)
same,GI50,[14],48.8 µM (inactive)
same,GI50,[15],29.4 µM (inactive)
same,GI50,[16],56.8 µM (inactive)
same,GI50,[17],> 100 µM (inactive)
same,GI50,[18],31.1 µM (inactive)
same,GI50,[19],57.9 µM (inactive)
same,GI50,[20],40.7 µM (inactive)
same,GI50,[21],18.2 µM (inactive)
same,GI50,[22],16.9 µM (inactive)
same,GI50,[23],3.08 µM (inactive)
same,GI50,[24],> 10 µM (inactive)
same,GI50,[25],18.7 µM (inactive)
same,GI50,[26],> 100 µM (inactive)
same,GI50,[27],45.8 µM (inactive)
same,GI50,[28],23.2 µM (inactive)
same,GI50,[29],17.1 µM (inactive)
same,GI50,[30],> 100 µM (inactive)
same,GI50,[31],5.05 µM (inactive)
same,GI50,[32],> 100 µM (inactive)
same,GI50,[33],19.9 µM (inactive)
same,GI50,[34],> 10 µM (inactive)
same,GI50,[35],44.6 µM (inactive)
same,GI50,[36],59 µM (inactive)
same,GI50,[37],14.3 µM (inactive)
same,GI50,[38],22.3 µM (inactive)
same,GI50,[39],> 100 µM (inactive)
same,GI50,[40],29.3 µM (inactive)
same,GI50,[41],15.3 µM (inactive)
same,GI50,[42],56.4 µM (inactive)
same,GI50,[43],15.5 µM (inactive)
same,GI50,[44],> 100 µM (inactive)
same,GI50,[45],32.5 µM (inactive)
same,GI50,[46],19.1 µM (inactive)
same,GI50,[47],17.2 µM (inactive)
same,GI50,[48],17.1 µM (inactive)
same,GI50,[49],> 10 µM (inactive)
same,GI50,[50],28.2 µM (inactive)
same,GI50,[51],12.8 µM (inactive)
same,GI50,[52],45 µM (inactive)
same,GI50,[53],31.5 µM (inactive)
same,GI50,[54],1.87 µM (inactive)
same,GI50,[55],16.5 µM (inactive)
same,GI50,[56],> 100 µM (inactive)
CSc1cccc(-n2c3nc(=O)n(C)c(=O)c-3nc3ccccc32)c1,GI50,[1],17.4 µM (inactive)
same,GI50,[2],2.94 µM (inactive)
same,GI50,[3],2.26 µM (inactive)
same,GI50,[4],13.3 µM (inactive)
same,GI50,[5],4.35 µM (inactive)
same,GI50,[6],0.735 µM (active)
same,GI50,[7],3.04 µM (inactive)
same,GI50,[8],13 µM (inactive)
same,GI50,[9],2.16 µM (inactive)
same,GI50,[10],3.54 µM (inactive)
same,GI50,[11],12 µM (inactive)
same,GI50,[12],5.02 µM
same,GI50,[13],4.03 µM (inactive)
same,GI50,[14],16.6 µM (inactive)
same,GI50,[15],1.66 µM (inactive)
same,GI50,[16],17.4 µM (inactive)
same,GI50,[17],19.4 µM (inactive)
same,GI50,[18],1.25 µM (inactive)
same,GI50,[19],2.4 µM (inactive)
same,GI50,[20],2.51 µM (inactive)
same,GI50,[21],3.34 µM (inactive)
same,GI50,[22],3.51 µM (inactive)
same,GI50,[23],14.5 µM (inactive)
same,GI50,[24],13.6 µM (inactive)
same,GI50,[25],3.27 µM (inactive)
same,GI50,[26],7.98 µM (inactive)
same,GI50,[27],21.8 µM (inactive)
same,GI50,[28],8.83 µM (inactive)
same,GI50,[29],4.92 µM (inactive)
same,GI50,[30],35.3 µM (inactive)
same,GI50,[31],13.2 µM (inactive)
same,GI50,[32],12.6 µM (inactive)
same,GI50,[33],14 µM (inactive)
same,GI50,[34],1.95 µM (inactive)
same,GI50,[35],4.94 µM (inactive)
same,GI50,[36],2.65 µM (inactive)
same,GI50,[38],5.77 µM (inactive)
same,GI50,[39],18.1 µM (inactive)
same,GI50,[40],3.91 µM (inactive)
same,GI50,[41],9.33 µM (inactive)
same,GI50,[42],19.3 µM (inactive)
same,GI50,[43],11 µM (inactive)
same,GI50,[44],18 µM (inactive)
same,GI50,[45],9.53 µM (inactive)
same,GI50,[46],2.7 µM (inactive)
same,GI50,[47],11.8 µM (inactive)
same,GI50,[48],3.78 µM (inactive)
same,GI50,[49],2.07 µM (inactive)
same,GI50,[51],7.29 µM (inactive)
same,GI50,[52],12.9 µM (inactive)
same,GI50,[57],5.38 µM (inactive)
same,GI50,[53],12.5 µM (inactive)
same,GI50,[54],12.9 µM (inactive)
same,GI50,[55],14.7 µM (inactive)
same,GI50,[56],10.8 µM (inactive)
